{"source": "paper doi:10.1101/2025.02.26.640323", "about": "“Aggregation-Dependent Epitope Sequence and Modification Fingerprints of Anti-Aβ Antibodies” (bioRxiv, 2025)", "key": {"[1]": {"tested_on": "PTM-carrying Aβ peptides (PTM-Aβ)", "test": "PTM-Aβ microarray, general", "format": "binding, human", "details": "general statement", "from_the_text": "(§1) Specific PTMs might be associated with different stages of AD progression and severity, offering potential biomarkers for diagnosis and prognosis. Targeting PTMs represents a potential therapeutic strategy to prevent Aβ aggregation and neurotoxicity, thereby slowing disease progression. […] Therefore, a selected group of PTM-carrying Aβ peptides (PTM-Aβ) were incorporated into the Aβ chip to explore the potential binding preference of selected Aβ-Abs, under optimized concentrations (Figure 3). The antibodies were tested with both PTM-Aβ and the corresponding unmodified variants to provide a head-to-head comparison. This screening was performed in the presence of Aβ phosphorylated at positions Ser(8) or Ser(26), N-terminal pE at position 3, racemization/isomerization of Asp at position 1, and unmodified N-terminal variants. The dataset is divided into sections (Figure 3 a–f) for enhanced visualization, where each antibody was screened simultaneously against all peptides to locate their epitope preferences. […] A set of antibodies without reported PTM preference was applied here as controls (refer to Table 1), namely 11H3, 101–1-1, IC16, 82E1 and 3D6.\n(§2) Figure 3. […] Blue and red shades indicate the binding strength over the related arrayed […] modified peptide shown on top and cognate anti-Aβ antibody to the left. […]"}, "[2]": {"tested_on": "Aβ vascular and parenchymal deposits in AD brain sections", "test": "Immunohistochemistry on AD brain tissue with antibody pre-adsorption", "design": "species or system human", "details": "1 μg Donanemabbs with 2.5 μg peptide; human AD brain", "description": "Immunohistochemistry was performed on 4-μm paraffin sections. In brief, brain sections were deparaffinized in Roticlear (Carl Roth, Karlsruhe, Germany) and rehydrated in a descending series of ethanol. Activity of endogenous peroxidases was blocked by incubation in 0.3% H2O2 in PBS for 30 min. […] Antibodies and peptides were incubated on a rotator for 3 h at room temperature and reaction tubes were centrifuged at 13000 rpm for 5 min at the end of the incubation period. Control conditions included antibodies in 0.01 M PBS including 10% FCS without synthetic peptides. Adjacent paraffin-embedded sections from a human AD case were incubated overnight with the supernatants and sections were washed with 0.01 M PBS including 0.1 % Tergitol. For detection, biotinylated anti-human antibodies (6 μg/ml, Jackson ImmunoResearch, West Grove, Pennsylvania, USA #109-065-003) were used and staining was visualized with the ABC method with a Vectastain kit (Vector Laboratories, Newark, California, USA), diaminobenzidine as a chromogen and counterstaining with hematoxylin."}, "[3]": {"tested_on": "synthetic Aβ peptides", "test": "Peptide Bicine-Tris SDS-PAGE/Western blot", "format": "binding", "details": "PVDF, 50 ng per peptide, 0.5 μg/mL antibody"}, "[4]": {"tested_on": "Aβ1–42 monomer, oligomer and fibril preparations; AβpE3–40", "test": "Bistris-SDS gradient PAGE/Western blot", "format": "binding", "details": "4–12% Bistris SDS-PAGE", "description": "No SPR-487B) (StressMarq biosciences, Victoria, BC, Canada). The samples for electrophoresis were prepared (starting from stock solutions) with final concentrations of 0.1 μg/μL) in LDS sample buffer (247.5 mM Tris-HCl, pH 8.5, 2% (w/v) lithium dodecyl sulfate (LDS), 10% (v/v) glycerol, 0.5 mM EDTA, 0.22 mM Brilliant Blue G250, 0.175 mM Phenol Red) and denatured by heating at 70°C for 10 min. […] The prechilled transfer buffer contained 25 mM Tris, 192 mM glycine, 20% (v/v) methanol and 0.0375 % Tween-20. After blotting, the membrane was washed for 10 min at room temperature in Tris-buffered saline (TBS) followed by blocking for 30 min with 5% powdered milk in TBS containing 0.1% Tween-20 (TBS-T). The blots were then incubated with primary antibodies in 5% milk in TBS-T over night at 4°C and washed 3 × for 10 min with TBS-T at room temperature. […] After 1 h incubation with the secondary antibodies, the blots were washed 3 × for 10 min with TBS-T and incubated for 5 min with ECL-Prime Western Blotting Detection Reagent (Cytiva Amersham, Little Chalfont, England). Images were recorded on a Vilber-Loumart Fusion SL blot imager. […] That way, the 4G8 reprobing signals were essentially added on top of the initial signals and background artifacts."}, "[5]": {"tested_on": "Aβ(−10–18)", "test": "Deep mutational scans of 18-meric Aβ peptides on microarray", "format": "binding, human"}, "[6]": {"tested_on": "AβpE3-x", "test": "PTM-Aβ microarray, pE3", "format": "binding, human", "details": "Donanemabbs 0,0012μg/mL, 2–48, Aβ-pE3, IC16 […], vs Aβ3-x with non-cyclized Glu", "from_the_text": "as §1, §2"}, "[7]": {"tested_on": "mixture of ten synthetic Aβ peptides", "test": "IP-MS from mixture of ten synthetic Aβ peptides", "format": "binding", "details": "TOPAC matrix, 10ng/mL each peptide"}}, "note": "Entries after “also recorded” stand apart in the source; their conditions may differ."}
{"substance": "Donanemabbs: humanized monoclonal, biosimilar of Donanemab, Proteogenix (#PX-TA1549)", "values": [{"measurement": "preference for PTMs", "setting": "[1]", "result": "exhibited the previously reported preferences for PTMs"}, {"measurement": "IHC immunoreactivity after pre-adsorption with Aβ1–40", "setting": "[2]", "result": "not suppressed"}, {"measurement": "IHC immunoreactivity after pre-adsorption with Aβ3–40", "setting": "[2]", "result": "not suppressed"}, {"measurement": "IHC immunoreactivity after pre-adsorption with AβpE3–40", "setting": "[2]", "result": "efficiently suppressed; also recorded: effectively attenuated"}, {"measurement": "Aβ variants detected on Bicine-Tris SDS-PAGE/Western blot", "setting": "[3]", "result": "detected AβpE3–40 and Aβ3–40"}, {"measurement": "detection of AβpE3–40, Bistris Western blot", "setting": "[4]", "result": "detected multiple AβpE3–40 bands in the low Mwrange"}, {"measurement": "detection of HFIP-treated monomeric, oligomeric and fibrillar Aβ1–42", "setting": "[4]", "result": "very faint signals"}, {"measurement": "core motif / main contacts / epitope", "setting": "[5]; 18-mer deep mutational scan, core position if >50% of exchanges reduce binding by >50%", "result": "EFRHDSGY"}, {"measurement": "residue conservation at Asp(1) and Ala(2)", "setting": "[5]; Aβ1–18 deep mutational scan", "result": "Asp(1) and Ala(2) were not highly conserved"}, {"measurement": "selectivity for / binding to AβpE3-x", "setting": "[6]", "result": "high selectivity for Aβ peptides starting with an N-terminal pE"}, {"measurement": "IP-MS signal of AβpE3–40", "setting": "[7]", "result": "highly preferential binding"}]}
